Test results: article PMC5218480 (PLoS ONE, 2017)

Test system: MV-4-11 cells
Test: Gene expression microarray analysis (Affymetrix PrimeView) and GSEA
Format: cell-based, human
Set-up: RFU PODN (11730768_x_at) / Fold change /veh PODN (11730768_x_at) / RFU LINC00158 (11744669_a_at) / Fold change /veh LINC00158 (11744669_a_at) / RFU DUSP10 (11751237_a_at) / Fold change /veh DUSP10 (11751237_a_at) / RFU ID3 (11757404_x_at) / Fold change /veh ID3 (11757404_x_at) / RFU PLEKHG5 (11737974_s_at) / Fold change /veh PLEKHG5 (11737974_s_at) / RFU LRRC4B (11730491_at) / Fold change /veh LRRC4B (11730491_at) / RFU GIMAP4 (11747438_a_at) / Fold change /veh GIMAP4 (11747438_a_at) / RFU KRT8 (11758183_x_at) / Fold change /veh KRT8 (11758183_x_at) / RFU CNN1 (11734310_a_at) / Fold change /veh CNN1 (11734310_a_at) / RFU VPS37D (11726825_at) / Fold change /veh VPS37D (11726825_at) / RFU C10orf10 (11716522_x_at) / Fold change /veh C10orf10 (11716522_x_at) / RFU KIR2DL2 /// KIR2DL4 /// KIR2DL5A /// KIR2DL5B /// KIR2DS1 /// KIR2DS2 /// KIR2DS3 /// KIR2DS4 /// KIR3DL3 /// KIR3DL3 /// KIR3DS1 (11738374_at) / Fold change /veh KIR2DL2 /// KIR2DL4 /// KIR2DL5A /// KIR2DL5B /// KIR2DS1 /// KIR2DS2 /// KIR2DS3 /// KIR2DS4 /// KIR3DL3 /// KIR3DL3 /// KIR3DS1 (11738374_at) / RFU C1QL1 (11718748_at) / Fold change /veh C1QL1 (11718748_at) / RFU TMPRSS4 (11747572_a_at) / Fold change /veh TMPRSS4 (11747572_a_at) / RFU HAMP (11756126_x_at) / Fold change /veh HAMP (11756126_x_at) / RFU RNFT2 (11725882_a_at) / Fold change /veh RNFT2 (11725882_a_at) / RFU NR4A2 (11747474_a_at) / Fold change /veh NR4A2 (11747474_a_at) / RFU ABCC12 (11746883_a_at) / Fold change /veh ABCC12 (11746883_a_at) / RFU TMEM136 (11760407_x_at) / Fold change /veh TMEM136 (11760407_x_at) / RFU CLDN22 /// WWC2 (11732394_at) / Fold change /veh CLDN22 /// WWC2 (11732394_at) / RFU HLA-DPB1 (11760878_x_at) / Fold change /veh HLA-DPB1 (11760878_x_at) / RFU SPINT1 (11716480_a_at) / Fold change /veh SPINT1 (11716480_a_at) / RFU GAP43 (11754022_s_at) / Fold change /veh GAP43 (11754022_s_at) / RFU A4GNT (11735810_at) / Fold change /veh A4GNT (11735810_at) / RFU PRB3 (11715151_x_at) / Fold change /veh PRB3 (11715151_x_at) / RFU TUBB4B (11761932_at) / Fold change /veh TUBB4B (11761932_at) / RFU CAPN14 (11732068_a_at) / Fold change /veh CAPN14 (11732068_a_at) / RFU TMCC2 (11721928_a_at) / Fold change /veh TMCC2 (11721928_a_at) / RFU IRGQ (11745062_a_at) / Fold change /veh IRGQ (11745062_a_at) / RFU FAM174B (11720279_a_at) / Fold change /veh FAM174B (11720279_a_at) / RFU TMPRSS4 (11748680_a_at) / Fold change /veh TMPRSS4 (11748680_a_at) / RFU FAM212B (11763350_a_at) / Fold change /veh FAM212B (11763350_a_at) / RFU PLEKHG5 (11743358_a_at) / Fold change /veh PLEKHG5 (11743358_a_at) / RFU ZSCAN30 (11745921_a_at) / Fold change /veh ZSCAN30 (11745921_a_at) / RFU CMKLR1 (11741424_a_at) / Fold change /veh CMKLR1 (11741424_a_at) / RFU LOC101060620 /// MAPK8IP1 (11723275_at) / Fold change /veh LOC101060620 /// MAPK8IP1 (11723275_at) / RFU SPTSSB (11747773_x_at) / Fold change /veh SPTSSB (11747773_x_at) / RFU PRSS12 (11739890_at) / Fold change /veh PRSS12 (11739890_at) / RFU BIN1 (11741810_x_at) / Fold change /veh BIN1 (11741810_x_at) / RFU WNT11 (11732464_a_at) / Fold change /veh WNT11 (11732464_a_at) / RFU C10orf10 (11716521_a_at) / Fold change /veh C10orf10 (11716521_a_at) / RFU C5orf56 (11738089_at) / Fold change /veh C5orf56 (11738089_at) / RFU CYB561 (11721691_x_at) / Fold change /veh CYB561 (11721691_x_at) / RFU ANKRD19P (11752326_a_at) / Fold change /veh ANKRD19P (11752326_a_at) / RFU OR2T12 /// OR2T33 /// OR2T8 (11738714_s_at) / Fold change /veh OR2T12 /// OR2T33 /// OR2T8 (11738714_s_at) / RFU VCAN (11748164_a_at) / Fold change /veh VCAN (11748164_a_at) / RFU JSRP1 (11732532_at) / Fold change /veh JSRP1 (11732532_at) / RFU KRTAP10-11 (11738290_x_at) / Fold change /veh KRTAP10-11 (11738290_x_at) / RFU MYO3A (11730013_a_at) / Fold change /veh MYO3A (11730013_a_at) / RFU EBF3 (11725865_a_at) / Fold change /veh EBF3 (11725865_a_at) / RFU CAMK2N1 (11719241_x_at) / Fold change /veh CAMK2N1 (11719241_x_at) / RFU C5orf56 (11738088_a_at) / Fold change /veh C5orf56 (11738088_a_at) / RFU OLFML3 (11715873_a_at) / Fold change /veh OLFML3 (11715873_a_at) / RFU LOC100653217 /// NTM (11731650_a_at) / Fold change /veh LOC100653217 /// NTM (11731650_a_at) / RFU MAPK11 (11762145_a_at) / Fold change /veh MAPK11 (11762145_a_at) / RFU FIZ1 (11724087_x_at) / Fold change /veh FIZ1 (11724087_x_at) / RFU OASL (11726364_x_at) / Fold change /veh OASL (11726364_x_at) / RFU SOX15 (11748057_x_at) / Fold change /veh SOX15 (11748057_x_at) / RFU CD79A (11719716_a_at) / Fold change /veh CD79A (11719716_a_at) / RFU HIST1H1D (11736915_at) / Fold change /veh HIST1H1D (11736915_at) / RFU CASKIN2 (11723855_a_at) / Fold change /veh CASKIN2 (11723855_a_at) / RFU LOC730098 (11760151_x_at) / Fold change /veh LOC730098 (11760151_x_at) / RFU OR4N2 (11742367_at) / Fold change /veh OR4N2 (11742367_at) / RFU PRRT2 (11749266_a_at) / Fold change /veh PRRT2 (11749266_a_at) / RFU SNX32 (11753110_a_at) / Fold change /veh SNX32 (11753110_a_at) / RFU CDHR5 (11726645_a_at) / Fold change /veh CDHR5 (11726645_a_at) / RFU RCAN1 (11760418_a_at) / Fold change /veh RCAN1 (11760418_a_at) / RFU FAM167A (11723789_a_at) / Fold change /veh FAM167A (11723789_a_at) / RFU FAM26E (11764081_at) / Fold change /veh FAM26E (11764081_at) / RFU ISYNA1 (11749810_s_at) / Fold change /veh ISYNA1 (11749810_s_at) / RFU ACY1 (11761880_at) / Fold change /veh ACY1 (11761880_at) / RFU 11764098_at / Fold change /veh 11764098_at / RFU SAMD14 (11745864_x_at) / Fold change /veh SAMD14 (11745864_x_at) / RFU NPB (11741838_a_at) / Fold change /veh NPB (11741838_a_at) / RFU TMPRSS6 (11731388_a_at) / Fold change /veh TMPRSS6 (11731388_a_at) / RFU KRTAP10-2 (11738614_at) / Fold change /veh KRTAP10-2 (11738614_at) / RFU ARHGAP8 /// PRR5-ARHGAP8 (11727945_x_at) / Fold change /veh ARHGAP8 /// PRR5-ARHGAP8 (11727945_x_at) / RFU KRTAP5-7 /// NADSYN1 (11734609_at) / Fold change /veh KRTAP5-7 /// NADSYN1 (11734609_at) / RFU RASL12 (11751679_a_at) / Fold change /veh RASL12 (11751679_a_at) / RFU CDKN2B (11736163_a_at) / Fold change /veh CDKN2B (11736163_a_at) / RFU PRF1 (11729649_at) / Fold change /veh PRF1 (11729649_at) / RFU, ZNF638 /// ZNF638-IT1 / Fold change vs veh, ZNF638 /// ZNF638-IT1 / RFU, PANK3 / Fold change vs veh, PANK3 / RFU, SH3YL1 / Fold change vs veh, SH3YL1 / RFU, ZEB2 / Fold change vs veh, ZEB2 / RFU, NRIP1 / Fold change vs veh, NRIP1 / RFU, PTTG1IP / Fold change vs veh, PTTG1IP / RFU, CAPN2 / Fold change vs veh, CAPN2 / RFU, MED14 / Fold change vs veh, MED14 / RFU, SNORA58 / Fold change vs veh, SNORA58 / RFU, C1orf63 / Fold change vs veh, C1orf63 / RFU, LRRFIP1 / Fold change vs veh, LRRFIP1 / RFU, NDUFAF7 / Fold change vs veh, NDUFAF7 / RFU, SLC12A2 / Fold change vs veh, SLC12A2 / RFU, IBTK / Fold change vs veh, IBTK / RFU, ESF1 / Fold change vs veh, ESF1 / Fold change vs veh, TMEM50B / RFU, TAOK1 / Fold change vs veh, TAOK1 / RFU, ACBD3 / Fold change vs veh, ACBD3 / RFU, TMA16 / Fold change vs veh, TMA16 / RFU, RWDD3 / Fold change vs veh, RWDD3 / RFU, BCAT1 / Fold change vs veh, BCAT1 / RFU, EDEM3 / Fold change vs veh, EDEM3 / RFU, TMEM33 / Fold change vs veh, TMEM33 / RFU, WDR75 / Fold change vs veh, WDR75 / RFU, AHCTF1 / Fold change vs veh, AHCTF1 / RFU, TFRC / Fold change vs veh, TFRC / RFU, ZDHHC17 / Fold change vs veh, ZDHHC17 / RFU, NOM1 / Fold change vs veh, NOM1 / RFU, ARL8B / Fold change vs veh, ARL8B / RFU, ZBTB11 / Fold change vs veh, ZBTB11 / RFU, TAMM41 / Fold change vs veh, TAMM41 / RFU, KIAA1704 /// LOC100996395 / Fold change vs veh, KIAA1704 /// LOC100996395 / RFU, ING1 / Fold change vs veh, ING1 / RFU, TRMT61B / Fold change vs veh, TRMT61B / RFU, FUBP3 / Fold change vs veh, FUBP3 / RFU, TP53 / Fold change vs veh, TP53 / RFU, TNKS2 / Fold change vs veh, TNKS2 / RFU, ZFP14 / Fold change vs veh, ZFP14 / RFU, ACTR2 / Fold change vs veh, ACTR2 / RFU, PPP3R1 / Fold change vs veh, PPP3R1 / RFU, PIK3R1 / Fold change vs veh, PIK3R1 / RFU, HNRNPA1 / Fold change vs veh, HNRNPA1 / RFU, RNF170 / Fold change vs veh, RNF170 / RFU, ZNF28 / Fold change vs veh, ZNF28 / RFU, RNGTT / Fold change vs veh, RNGTT / RFU, OGT / Fold change vs veh, OGT / RFU, BRD1 / Fold change vs veh, BRD1 / RFU, MARS / Fold change vs veh, MARS / RFU, ZNF655 / Fold change vs veh, ZNF655 / RFU, FAHD1 / Fold change vs veh, FAHD1 / RFU, BDP1 / Fold change vs veh, BDP1 / RFU, LRRCC1 / Fold change vs veh, LRRCC1 / RFU, ARID1A / Fold change vs veh, ARID1A / RFU, ZNF146 / Fold change vs veh, ZNF146 / RFU, ZNF330 / Fold change vs veh, ZNF330 / RFU, GPN3 / Fold change vs veh, GPN3 / RFU, C9orf123 / Fold change vs veh, C9orf123 / RFU, N4BP2L2 / Fold change vs veh, N4BP2L2 / RFU, ARFIP1 / Fold change vs veh, ARFIP1 / RFU, FAM179B / Fold change vs veh, FAM179B / RFU, BCL10 / Fold change vs veh, BCL10 / RFU, UHRF1BP1L / Fold change vs veh, UHRF1BP1L / RFU, BET1 / Fold change vs veh, BET1 / RFU, CNOT2 / Fold change vs veh, CNOT2 / RFU, ZNF268 / Fold change vs veh, ZNF268 / Fold change vs veh, ZNF507 / RFU, DGCR2 / Fold change vs veh, DGCR2 / RFU, WDSUB1 / Fold change vs veh, WDSUB1 / Fold change vs veh, HSP90B1 /// MIR3652 / RFU, ADSS / Fold change vs veh, ADSS / RFU, GK / Fold change vs veh, GK / RFU, ZNF148 / Fold change vs veh, ZNF148 / RFU, TAF9 / Fold change vs veh, TAF9 / RFU, SLC1A5 / Fold change vs veh, SLC1A5 / RFU, SLMO2 / Fold change vs veh, SLMO2 / RFU, ABCC4 / Fold change vs veh, ABCC4 / RFU, LOC101060439 /// RAP1B / Fold change vs veh, LOC101060439 /// RAP1B / RFU, RFX7 / Fold change vs veh, RFX7 / RFU, GTPBP10 / Fold change vs veh, GTPBP10 / RFU, CNEP1R1 / Fold change vs veh, CNEP1R1 / RFU, BIVM-ERCC5 /// ERCC5 / Fold change vs veh, BIVM-ERCC5 /// ERCC5 / RFU, ILF3 / Fold change vs veh, ILF3 / RFU 11762660_at / Fold change /veh 11762660_at / RFU VCAN (11757783_s_at) / Fold change /veh VCAN (11757783_s_at) / RFU DDX43 (11728927_at) / Fold change /veh DDX43 (11728927_at) / RFU KRT8 (11758188_x_at) / Fold change /veh KRT8 (11758188_x_at) / RFU NKD1 (11759106_at) / Fold change /veh NKD1 (11759106_at) / RFU SRD5A1 (11742802_a_at) / Fold change /veh SRD5A1 (11742802_a_at) / RFU TPSAB1 /// TPSB2 (11721975_s_at) / Fold change /veh TPSAB1 /// TPSB2 (11721975_s_at) / RFU GSTM3 (11746129_a_at) / Fold change /veh GSTM3 (11746129_a_at) / RFU IL23R (11737362_x_at) / Fold change /veh IL23R (11737362_x_at) / RFU TMEM51 (11727254_a_at) / Fold change /veh TMEM51 (11727254_a_at) / RFU PIWIL2 (11732686_x_at) / Fold change /veh PIWIL2 (11732686_x_at) / RFU ORM1 (11744905_x_at) / Fold change /veh ORM1 (11744905_x_at) / RFU CCDC152 (11743942_at) / Fold change /veh CCDC152 (11743942_at) / RFU ECM1 (11717891_a_at) / Fold change /veh ECM1 (11717891_a_at) / RFU IL23R (11748794_a_at) / Fold change /veh IL23R (11748794_a_at) / RFU TNFAIP8L3 (11732012_x_at) / Fold change /veh TNFAIP8L3 (11732012_x_at) / RFU MBOAT4 (11741988_at) / Fold change /veh MBOAT4 (11741988_at) / RFU 11764193_at / Fold change /veh 11764193_at / RFU TMEM53 (11763286_at) / Fold change /veh TMEM53 (11763286_at) / RFU MAGEB2 (11727129_at) / Fold change /veh MAGEB2 (11727129_at) / RFU TMEM200A (11744735_a_at) / Fold change /veh TMEM200A (11744735_a_at) / RFU CCDC152 (11751479_a_at) / Fold change /veh CCDC152 (11751479_a_at) / RFU FAM211A (11726209_a_at) / Fold change /veh FAM211A (11726209_a_at) / RFU RGS16 (11746705_a_at) / Fold change /veh RGS16 (11746705_a_at) / RFU VCAN (11755009_s_at) / Fold change /veh VCAN (11755009_s_at) / RFU RHOB (11743442_s_at) / Fold change /veh RHOB (11743442_s_at) / RFU RGS16 (11720943_a_at) / Fold change /veh RGS16 (11720943_a_at) / RFU RGS16 (11720944_at) / Fold change /veh RGS16 (11720944_at) / RFU, VPS4B / Fold change vs veh, VPS4B / RFU, CREB1 / Fold change vs veh, CREB1 / RFU, DNAJC13 / Fold change vs veh, DNAJC13 / RFU, GNAQ / Fold change vs veh, GNAQ / RFU, CDK5R1 / Fold change vs veh, CDK5R1 / RFU, ZRANB3 / Fold change vs veh, ZRANB3 / RFU, CUL4A / Fold change vs veh, CUL4A / RFU, CCNY / Fold change vs veh, CCNY / RFU, UFL1 / Fold change vs veh, UFL1 / RFU, COG3 / Fold change vs veh, COG3 / RFU, DIAPH2 / Fold change vs veh, DIAPH2 / RFU, SKA2 / Fold change vs veh, SKA2 / RFU, AFF3 / Fold change vs veh, AFF3 / RFU, LMF1 / Fold change vs veh, LMF1 / RFU, IPO11 / Fold change vs veh, IPO11 / RFU, DFFB / Fold change vs veh, DFFB / RFU, FOXP1 / Fold change vs veh, FOXP1 / RFU, CARD8 / Fold change vs veh, CARD8 / RFU, STRN3 / Fold change vs veh, STRN3 / RFU, ADK / Fold change vs veh, ADK / RFU, RASSF2 / Fold change vs veh, RASSF2 / RFU, WIPF1 / Fold change vs veh, WIPF1 / RFU, LARP1B / Fold change vs veh, LARP1B / RFU, RASA1 / Fold change vs veh, RASA1 / RFU, RB1 / Fold change vs veh, RB1 / RFU, PPFIA1 / Fold change vs veh, PPFIA1 / RFU, MAT2A / Fold change vs veh, MAT2A / RFU, CCT5 / Fold change vs veh, CCT5 / RFU, WDR92 / Fold change vs veh, WDR92 / RFU, CUX1 / Fold change vs veh, CUX1 / RFU, TTC7A / Fold change vs veh, TTC7A / RFU, TMEM135 / Fold change vs veh, TMEM135 / RFU, DEPTOR / Fold change vs veh, DEPTOR / RFU, CPM / Fold change vs veh, CPM / RFU, DNAJB6 / Fold change vs veh, DNAJB6 / RFU, CACNA2D3 / Fold change vs veh, CACNA2D3 / RFU, DTX4 / Fold change vs veh, DTX4 / RFU, TFCP2 / Fold change vs veh, TFCP2 / RFU, GMCL1 /// GMCL1P1 / Fold change vs veh, GMCL1 /// GMCL1P1 / RFU, AEBP2 / Fold change vs veh, AEBP2 / RFU, SNHG1 /// SNORD22 /// SNORD25 /// SNORD26 /// SNORD27 /// SNORD28 /// SNORD29 /// SNORD31 / Fold change vs veh, SNHG1 /// SNORD22 /// SNORD25 /// SNORD26 /// SNORD27 /// SNORD28 /// SNORD29 /// SNORD31 / Fold change (Aza/veh), C12orf56 (ProbeSet 11735607_a_at) / Fold change (ACY-1035/veh), C12orf56 (ProbeSet 11735607_a_at) / Fold change (Aza/veh), FGFR1OP (ProbeSet 11751329_s_at) / Fold change (ACY-1035/veh), FGFR1OP (ProbeSet 11751329_s_at) / Fold change (Aza/veh), VPS36 (ProbeSet 11739960_a_at) / Fold change (ACY-1035/veh), VPS36 (ProbeSet 11739960_a_at) / RFU SYPL1 (11715823_x_at) / Fold change /veh SYPL1 (11715823_x_at) / RFU IGFBP7 (11715501_s_at) / Fold change /veh IGFBP7 (11715501_s_at) / RFU REEP3 (11722064_at) / Fold change /veh REEP3 (11722064_at) / RFU IGLL1 (11728026_x_at) / Fold change /veh IGLL1 (11728026_x_at): dose or concentration left out as unconfirmed
Settings: MV-4-11 cells, 48 hours

## Nc1ncn([C@@H]2O[C@H](CO)[C@@H](O)[C@H]2O)c(=O)n1 [azacitidine]
  RFU TMCC2 (11721928_a_at): 12.72 RFU
